This is an account of results in US11298348B2, “Combination treatment of sarcoglycanopathies” (INSERM (INSTITUT NATIONAL DE LA SANTE ET DE LA RECHERCHE …, priority 2018, dated 2022).

Assay [1] addresses T1, R77C-α-SG (Homo sapiens, UniProt Q16586, R77C).
T1 construct: The full-length cDNA encoding human α-sarcoglycan cloned in the pcDNA3 mammalian expression vector; expressed in transfected cells; host or cells: βγδ-cells (HER911 cells stably expressing β-, γ- and δ-sarcoglycan)
T1 sequence (Q16586 24-387 R77C): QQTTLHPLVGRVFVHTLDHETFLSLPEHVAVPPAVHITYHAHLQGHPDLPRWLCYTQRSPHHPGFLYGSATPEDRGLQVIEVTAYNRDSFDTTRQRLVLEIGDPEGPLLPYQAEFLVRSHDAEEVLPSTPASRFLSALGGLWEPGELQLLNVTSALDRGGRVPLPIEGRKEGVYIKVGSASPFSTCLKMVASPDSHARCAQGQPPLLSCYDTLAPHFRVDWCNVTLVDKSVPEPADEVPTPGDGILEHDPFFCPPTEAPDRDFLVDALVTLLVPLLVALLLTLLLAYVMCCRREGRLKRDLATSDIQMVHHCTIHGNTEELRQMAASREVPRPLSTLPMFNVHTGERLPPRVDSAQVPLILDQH
Description: Immunofluorescence of membrane α-SG in intact βγδ-cells expressing R77C-α-SG (confocal, ImageXpress). Type of assay: cell-based. The conditions noted are these: single corrector, 24 hours. The procedure:
(§1) For transient expression, HEK 293 cells were seeded at 50,000 cells/cm2 and transfected the day after with Transit293 (MirusBio) according to manufacturer's instruction. Twenty-four hours after transfection, medium was replaced with DMEM supplemented with 2% FBS containing the indicated concentration of correctors (dissolved in DMSO) or with DMSO alone (final DMSO concentration 0.1%). HER911 or βγδ-cells cells were seeded at 50,000 cells/cm2 and transfected the day after with 9 μl of Fugene HD Transfection Reagent (E2312 from Promega) and 3 μg of plasmid coding for wild type or mutated α-SG. MG132 was added 8 hours before cell lysis, CFTR correctors were added 24 hours before cell lysis or IF assay (transfected HEK293, V247M cells, HER911 and βγδ-cells) and 24-96 hours before myotubes lysis, treatment with CHX or IF assay.
Immunofluorescence-confocal analyses were performed either in intact cells (not permeabilized) or in permeabilized cells. For the former condition, cells, grown on polylysine-treated glasses, at the end of treatments were incubated for 30 minutes at 4° C., then gently washed twice with ice-cold PBS and incubated with primary antibodies for 5 hours at 4° C. […]
Quantification of the mean fluorescence intensity of membrane staining of […] transfected with R77C-α-SG was performed by using ImageXpress microscope system (Molecular Devices). […]

For assay [2], the target named is T1, R77C-α-SG. Description: Western blot and densitometry of α-SG content in βγδ-cells transiently expressing R77C-α-SG. The conditions noted are these: single corrector, C17 10 μM or C4 5 μM, 24 hours. The class given is cell-based. Here is the method:
as §1
After treatments, cells were washed twice with ice cold PBS and lysed with 5% sodium deoxycholate supplemented with complete protease inhibitor (Sigma-Aldrich).
Protein lysates were quantified by the bicinchoninic-acid protein assay kit (Thermo Scientific), according to manufacturer's instructions. […] After 1-hour incubation with donkey anti-rabbit IRDye680 and anti-mouse IRDye800 antibodies (EuroBio) at room temperature, proteins were detected by fluorescence in an Odissey imaging system (Li-Cor) following the manufacturer's instructions. […]

For `COc1ccc(Cl)cc1Nc1nc(-c2sc(NC(=O)c3ccccc3)nc2C)cs1` [C4, N-[2-(5-Chloro-2-methoxy-phenylamino)-4′-methyl-[4,5′]bithiazolyl-2′-yl]-benzamide], on R77C-α-SG [1], the “localization of rescued R77C-α-SG at the plasma membrane (confocal IF, not-permeabilized cells)” value is “intense cell-surface staining”. For the same molecule, the R77C-α-SG protein content result on R77C-α-SG [2] is “three to four-fold increase”.

In the case of `COc1ccc(Cl)cc1Nc1nc(-c2sc(NC(=O)C(C)(C)C)nc2C)cs1` [C17, N-(2-(5-chloro-2-methoxyphenylamino)-4′-methyl-4,5′-bithiazol-2′-yl)pivalamide], the “localization of rescued R77C-α-SG at the plasma membrane (confocal IF, not-permeabilized cells)” value at R77C-α-SG [1] is “intense cell-surface staining”. For the same molecule, the R77C-α-SG protein content result on R77C-α-SG [2] is “three to four-fold increase”.
